Entries after “also recorded” stand apart in the source; their conditions may differ.
Key:
[1] = Liposome encapsulation test of Example 1 (Test Example 6A); type: physicochemical
Method: 11.08 g of Presome ACD-1 (pre-prepared mixture consisting of hydrogenated soybean phosphatidylcholine, cholesterol, and distearoylphosphatidylethanolamine-methoxypolyethylene glycol 2000 at a mass ratio of 3:1:1, Nippon Fine Chemical Co., Ltd.) was weighed out, and 200 mL of 250 mM ammonium sulfate solution was added. The resulting mixture was heated to 65° C. and dispersed with a homogenizer (ULTRA-TURRAX, IKA) to obtain a crude liposome dispersion. […] The mixture was filtered through a 0.22 μm membrane filter to obtain an empty liposome solution with a total lipid concentration of 75 mM (75 μmol/mL).
The compound of Example 1 was weighed out. About 0.4 mL of 10 mM L-histidine buffer/10% sucrose solution (pH 6.5), about 0.1 mL of 0.1 mol/L hydrochloric acid, and 1 mL of the empty liposome solution were added, and the pH was adjusted to 6 to 6.5 by adding 1 mol/L hydrochloric acid. The mixture was heated for 30 minutes in a 65° C. water bath and then cooled with ice. The mixture was then filtered through a 0.22 μm membrane filter.
The liposome encapsulation ratio was calculated as follows. Unencapsulated compound concentration: The compound concentration was measured by HPLC for a solution prepared by adding 100 μL of aqueous 4% phosphoric acid solution to 100 μL of liposome solution. HPLC measurement conditions are the following.
Compound concentration in liposome solution: The liposome solution was diluted with a trifluoroacetic acid/water/methanol mixture (0.1/25/75) and was left standing for 10 minutes or longer at 5° C. The mixture was centrifuged for 5 minutes at 15,000×g to remove insolubles. The compound concentration in the supernatant was measured by HPLC. HPLC measurement conditions are the following. HPLC Conditions Column: Acquity UPLC BEH C18, 1.7 μm, 50×2.1 mm Column temperature: 40° C. Mobile phase: A: 0.1% trifluoroacetic acid containing water B: acetonitrile A/B (min): 95/5 (0)→0/100 (3.5)→0/100 (4)→95/5 (4.01)→95/5 (5) Flow rate: 0.8 mL/min Detection: UV visible detector, measured wavelength 254 nm injected volume: 5 μL
The encapsulation ratio and encapsulation efficiency were calculated by the following equations. Encapsulation ratio (%)=(compound concentration in liposome solution−unencapsulated compound concentration)×100/compound concentration in liposome solution Encapsulation efficiency (%)=(compound concentration in liposome solution−unencapsulated compound concentration)[…]

CHK1 [2] = target: T1, CHK1 (Homo sapiens (Human), UniProt O14757); test: CHK1 inhibitory activity test (IMAP TR-FRET); type: biochemical
T1 sequence (O14757 whole entry): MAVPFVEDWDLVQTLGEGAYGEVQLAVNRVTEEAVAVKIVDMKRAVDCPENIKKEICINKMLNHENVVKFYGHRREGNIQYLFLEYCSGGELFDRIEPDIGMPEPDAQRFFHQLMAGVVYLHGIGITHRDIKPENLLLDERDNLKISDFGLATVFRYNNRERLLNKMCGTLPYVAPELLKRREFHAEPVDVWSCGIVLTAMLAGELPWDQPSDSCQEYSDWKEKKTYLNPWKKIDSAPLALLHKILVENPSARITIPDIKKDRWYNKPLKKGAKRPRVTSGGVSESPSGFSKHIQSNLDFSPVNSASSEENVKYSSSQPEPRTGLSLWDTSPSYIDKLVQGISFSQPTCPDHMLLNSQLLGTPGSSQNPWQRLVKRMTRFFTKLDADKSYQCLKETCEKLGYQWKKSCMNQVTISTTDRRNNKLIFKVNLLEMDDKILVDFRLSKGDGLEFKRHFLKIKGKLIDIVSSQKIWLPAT
Method: IMAP TR-FRET Screening Express Kit (R8160) was obtained from Molecular Devices. […] FAM-PKAtide (R7255, Molecular Devices) and FAM-Phospho-PKAtide (R7304, Molecular Devices) were admixed after dilution, and calibration standard systems for phosphorylation levels from 0 to 100% were created. 5 μL of a compound dissolved in a 0.4% DMSO solution was added to a 384 well plate. A compound study group to which 5 μL of each of CHK1, CHK1tide, and ATP was added, and a standard group to which 20 μL of standard was added were created, and subjected to a kinase reaction for 3 hours at 30° C. Subsequently, 60 μL of Binding Reagent (80% Buffer A, 20% Buffer B, 1:600 Binding Reagent, 1:400 Tb-Donor) was added for a binding reaction for 2 hours at room temperature.

CHK1 [3] = target: T1, CHK1; test: CHK1/CHK2 selectivity test (LabChip mobility shift); type: biochemical; conditions: read-out: IC50 value with respect to CHK1

Question: With COc1ccnc(OCCCN)c1-c1cc(Nc2cnc(C#N)cn2)n[nH]1 [Example 1, 5-({5-[2-(3-aminopropoxy)-4-methoxypyridin-3-yl]-1H-pyrazol-3-yl}amino)pyrazine-2-carbonitrile] as the molecule, how does the “liposome encapsulation efficiency” value [1] read?
Answer: Its value is at least 90%.

Question: What about the Encapsulation efficiency ([1]; concentration upon compound introduction 2 mg/mL) of the same molecule?
Answer: The Encapsulation efficiency was 91.3%.

Question: And the Encapsulation efficiency ([1]; concentration upon compound introduction 3 mg/mL)?
Answer: Its Encapsulation efficiency is 91.6%.

Question: And the Encapsulation efficiency ([1]; concentration upon compound introduction 4 mg/mL)?
Answer: The Encapsulation efficiency was 92.2%.

Question: And the “CHK1 inhibitory activity relative to prexasertib” value (CHK1 [2])?
Answer: Its value is at least 5 fold.

Question: What about the IC50 (CHK1 [2]) of the same molecule?
Answer: The IC50 was under 0.1 nM.

Question: What about the “effect of suppressing CHK1 activity (in words)” value (CHK1 [2]; compared with prexasertib) of the same molecule?
Answer: Its value is “more potent effect of suppressing CHK1 activity than prexasertib; also recorded: especially potently suppressing CHK1 activity”.

Question: What about the inhibition at 0.0001 µM (CHK1 [2]; read-out: CHK1 inhibition % at 0.1 nM) of the same molecule?
Answer: Its inhibition at 0.0001 µM is 55%.

Question: What about the IC50 (CHK1 [3]) of the same molecule?
Answer: The IC50 was under 0.3 nM.

Source: US11564920B2, “5-heteroaryl-1H-pyrazol-3-amine derivative” (Sumitomo Pharma Co., Ltd., priority 2020, dated 2023)
